From ChEMBL document CHEMBL4680323, “'Proximity frequencies' a new parameter to evaluate the profile of GABAR modulators” (Bioorg Med Chem Lett, 2021) come the findings set out here.

Active and inactive are the calls of the source. The rule behind the calls is not given here.

Holding throughout (assay type): cell-based
The test system of test [1] is Oocyte. The experiment in a line: Antagonist activity at GABAA alpha1/beta2/gamma2L (unknown origin) expressed in Xenopus laevis oocyte assessed as reduction in lorazepam-induced chloride current at 100 uM relative to control. Also noted: scale not given: the % may be the effect or the level left. The settings on record: Homo sapiens, filed as antagonist.
Test [2] relates to Oocyte. The experiment in a line: Modulatory activity at GABAA alpha1/beta2/gamma2L (unknown origin) expressed in Xenopus laevis oocyte assessed as chloride current at 1 to 100 uM. The settings on record: Homo sapiens, dose 1-100 µM.
Test [3] relates to Oocyte. The experiment in a line: Agonist activity at GABAA alpha1/beta2/gamma2L (unknown origin) expressed in Xenopus laevis oocyte assessed as increase in chloride current at 30 uM relative to control. The settings on record: Homo sapiens, filed as agonist.
Test [4] has as its system Oocyte. The experiment in a line: Inverse agonist activity at GABAA alpha1/beta2/gamma2L (unknown origin) expressed in Xenopus laevis oocyte assessed as reduction in chloride current at 30 uM relative to control. The arrangement: scale not given: the % may be the effect or the level left. The settings on record: Homo sapiens.
Test [5] relates to Oocyte. The experiment in a line: Inverse agonist activity at GABAA alpha1/beta2/gamma2L (unknown origin) expressed in Xenopus laevis oocyte assessed as reduction in chloride current at 100 uM relative to control. Also noted: scale not given: the % may be the effect or the level left. The settings on record: Homo sapiens, filed as inverse agonist.

Regarding `COc1ccc2cnc3c(C(=O)NCc4ccccc4OC)cnn3c2c1`, the result in the test on Oocyte [1] was Active. The result with Oocyte [2] was inactive.
Turning to `COc1ccc2cnc3c(C(=O)NCc4ccccc4)cnn3c2c1`, the outcome in the test on Oocyte [1] was Active. The outcome in the test on Oocyte [2] was inactive.
Regarding `COc1ccc2c(c1)-n1ncc(C(=O)NC3CCCCC3)c1NC2`, the outcome in the test with Oocyte [1] was Active. In addition, in the test on Oocyte [2], the result was inactive.
Regarding `COc1ccc2cnc3c(C(=O)NCC4CCCCC4)cnn3c2c1`, in the test with Oocyte [1], the outcome was Active. Besides, the result with Oocyte [2] was inactive.
Regarding `COc1ccc2cnc3c(C(N)=O)cnn3c2c1`, in the test with Oocyte [1], the outcome was Active. In addition, in the test on Oocyte [2], the result was inactive.
With `COc1ccc2cnc3c(C(=O)Nc4ccccc4)cnn3c2c1`, the Activity in the test on Oocyte [3] is 34%.
On to `COc1ccc2c(c1)-n1ncc(C(=O)Nc3ccccc3)c1NC2`, for which the Activity with Oocyte [3] is 34%.
Regarding `COc1ccc2cnc3c(C(=O)NC4CCCCC4)cnn3c2c1`, the results for the Activity in the test on Oocyte [4] and with Oocyte [5] were 19% and 49%, respectively.
As to `COc1ccc2c(c1)-n1ncc(C(=O)NCc3ccco3)c1NC2`, the outcome with Oocyte [3] was Active.
For `COc1ccc2c(c1)-n1ncc(C(=O)NC(C)C)c1NC2`, the Activity in the test with Oocyte [1] was 90%. The outcome in the test with Oocyte [2] was inactive.
Turning to `COc1ccc2c(c1)-n1ncc(C(=O)NCC3CCCCC3)c1NC2`, the outcome in the test with Oocyte [1] was Active. Also, the outcome in the test on Oocyte [2] was inactive.
Turning to `COc1ccc2cnc3c(C(=O)NCc4cccs4)cnn3c2c1`, the Activity with Oocyte [3] is 34%.
Take `COc1ccc2cnc3c(C(=O)NC(C)C)cnn3c2c1`: the result in the test with Oocyte [1] was Active. Also, in the test on Oocyte [2], the result was inactive.
On the same counts, the results for `COc1ccc2c(c1)-n1ncc(C(=O)NCc3ccccc3)c1NC2` are “Active” and “inactive”.
For `COc1ccc2c(c1)-n1ncc(C(=O)NCc3ccccc3OC)c1NC2`, in that order: “Active” and “inactive”.
In the case of `COc1ccc2c(c1)-n1ncc(C(N)=O)c1NC2`, the result with Oocyte [1] was Active. The outcome with Oocyte [2] was inactive.
With `COc1ccc2cnc3c(C(=O)NCc4ccco4)cnn3c2c1`, in the test on Oocyte [3], the result was Active.
